The nature of the data set: Stability test: storage in stoppered vessels at 60° C. under a nitrogen atmosphere, content by HPLC. Conditions: for Stability (Residual rate): based on initial content (100%). Type of data set: physicochemical. The protocol:
In the stability test, crystals B, C and D of the present invention prepared in Examples 1, 2 and 4, respectively and the amorphous powder (Amorphous A) of compound of general formula (I) described in Example 1 (1d) of the Japanese Patent No. 2569251 were used as reference. These compounds were placed in stoppered vessels separately and stored at 60° C. under a nitrogen atmosphere for 17 days, and the content of these compounds was measured on 5, 10 and 17 days after the initiation of the storage.
The content of these compounds was determined quantitatively with high performance liquid chromatography (HPLC), and the rate of the remaining compounds (%) was calculated by the content of Compound (I) determined at each sampling point based on the initial content (100%) determined immediately before the storage.

Where [1] appears, read: 5 days after the initiation of storage.
Setting [2] is: 10 days after the initiation of storage.
[3] abbreviates: 17 days after the initiation of storage.

As for `CCCCCCCCCCCCCCCC(=O)Nc1ccn([C@@H]2O[C@H](CO)[C@@H](O)[C@@H]2C#N)c(=O)n1` [Crystal C, 2′-cyano-2′-deoxy-N^4-palmitoyl-1-β-D-arabinofuranosylcytosine], the “Stability (Residual rate)” value came to 101.0% under setting [1]; 100.4% under setting [2]; 100.1% under setting [3]; 100% (17 days after the initiation of storage, listed as crystal C).
Take `CCCCCCCCCCCCCCCC(=O)Nc1ccn([C@@H]2O[C@H](CO)[C@@H](O)[C@@H]2C#N)c(=O)n1` [Crystal D, 2′-cyano-2′-deoxy-N^4-palmitoyl-1-β-D-arabinofuranosylcytosine]: the “Stability (Residual rate)” value stood at 99.9% under setting [1]; 98.3% under setting [2]; 98.4% under setting [3]; 98.4% (17 days after the initiation of storage, listed as crystal D).
On to `CCCCCCCCCCCCCCCC(=O)Nc1ccn([C@@H]2O[C@H](CO)[C@@H](O)[C@@H]2C#N)c(=O)n1` [Crystal B, 2′-cyano-2′-deoxy-N^4-palmitoyl-1-β-D-arabinofuranosylcytosine], for which the “Stability (Residual rate)” value is, setting by setting: under setting [1], 101.0%; under setting [2], 100.3%; under setting [3], 100.4%; (17 days after the initiation of storage, listed as crystal B) 100%.
Turning to `CCCCCCCCCCCCCCCC(=O)Nc1ccn([C@@H]2O[C@H](CO)[C@@H](O)[C@@H]2C#N)c(=O)n1` [Amorphous A, 2′-cyano-2′-deoxy-N^4-palmitoyl-1-β-D-arabinofuranosylcytosine, reference compound], the “stability (in words)” value is listed as “extremely low”. The “Stability (Residual rate)” value under setting [1] stood at 92.7%. The “Stability (Residual rate)” value under setting [2] came out at 78.6%. Besides, under setting [3], the “Stability (Residual rate)” value was found to be 62.5%. The “Stability (Residual rate)” value (17 days after the initiation of storage, listed as amorphous A) is reported as 62.5%.

These data come from US6908906B2, “Crystalline forms of pyrimidine nucleoside derivative” (Sankyo Company, Limited, priority 2001, dated 2005).
